Experimental data taken from patent US12258327B2, “5-membered heteroaryl-containing aminopyridine compounds as EGFR inhibitors” (YUHAN CORPORATION, priority 2021, dated 2025).
Where two headings read alike, the source gives them in different places.

Legend:
EGFR del19/C797S = EGFR del19/C797S (Homo sapiens, UniProt P00533, C797S/DEL746-750); assay: Biochemical EGFR kinase assay (Lance Ultra TR-FRET), double mutant del19/C797S
Summary of the method: (§1)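 In this biochemical assay, phosphorylation after a one-hour room-temperature reaction was detected with europium-labelled anti-phosphopeptide antibody at 2 nM final concentration.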

EGFR wildtype (WT) = EGFR wildtype (WT) (Homo sapiens, UniProt P00533); assay: Biochemical EGFR kinase assay (Lance Ultra TR-FRET), wildtype
Chain of EGFR wildtype (WT) (P00533 25-1210): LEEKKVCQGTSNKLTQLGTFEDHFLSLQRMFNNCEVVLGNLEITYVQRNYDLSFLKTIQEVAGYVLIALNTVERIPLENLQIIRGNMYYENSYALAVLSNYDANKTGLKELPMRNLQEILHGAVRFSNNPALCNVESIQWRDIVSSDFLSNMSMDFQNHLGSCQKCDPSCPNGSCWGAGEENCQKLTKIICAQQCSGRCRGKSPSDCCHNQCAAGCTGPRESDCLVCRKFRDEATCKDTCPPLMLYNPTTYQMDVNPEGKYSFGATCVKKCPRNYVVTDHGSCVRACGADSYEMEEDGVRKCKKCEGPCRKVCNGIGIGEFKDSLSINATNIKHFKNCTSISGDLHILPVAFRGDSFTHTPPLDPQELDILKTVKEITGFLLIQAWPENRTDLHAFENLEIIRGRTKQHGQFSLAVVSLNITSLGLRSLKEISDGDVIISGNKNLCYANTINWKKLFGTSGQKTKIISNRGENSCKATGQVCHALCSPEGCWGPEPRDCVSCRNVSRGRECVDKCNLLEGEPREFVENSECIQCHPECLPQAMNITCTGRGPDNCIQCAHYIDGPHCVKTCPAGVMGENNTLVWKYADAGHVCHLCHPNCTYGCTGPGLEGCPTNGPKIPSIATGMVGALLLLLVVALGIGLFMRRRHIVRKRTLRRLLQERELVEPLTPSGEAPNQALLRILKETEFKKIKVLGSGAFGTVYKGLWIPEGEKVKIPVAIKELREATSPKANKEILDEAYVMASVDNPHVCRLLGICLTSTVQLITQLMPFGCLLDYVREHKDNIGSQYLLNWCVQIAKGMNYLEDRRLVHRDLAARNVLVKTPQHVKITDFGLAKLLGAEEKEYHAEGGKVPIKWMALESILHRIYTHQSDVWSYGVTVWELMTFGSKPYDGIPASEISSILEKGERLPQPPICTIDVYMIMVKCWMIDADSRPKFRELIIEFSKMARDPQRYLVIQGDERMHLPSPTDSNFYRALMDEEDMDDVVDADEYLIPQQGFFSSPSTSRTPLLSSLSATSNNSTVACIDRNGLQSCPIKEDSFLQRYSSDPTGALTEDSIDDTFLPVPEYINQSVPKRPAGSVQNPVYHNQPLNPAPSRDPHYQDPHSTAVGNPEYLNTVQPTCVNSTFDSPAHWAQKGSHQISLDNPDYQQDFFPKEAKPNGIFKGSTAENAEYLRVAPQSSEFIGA
Summary of the method: as §1

EGFR L858R/T790M/C797S = EGFR L858R/T790M/C797S (Homo sapiens, UniProt P00533, C797S/L858R/T790M); assay: Biochemical EGFR kinase assay (Lance Ultra TR-FRET), triple mutant L858R/T790M/C797S
Chain of EGFR L858R/T790M/C797S (P00533 25-1210 T790M/C797S/L858R): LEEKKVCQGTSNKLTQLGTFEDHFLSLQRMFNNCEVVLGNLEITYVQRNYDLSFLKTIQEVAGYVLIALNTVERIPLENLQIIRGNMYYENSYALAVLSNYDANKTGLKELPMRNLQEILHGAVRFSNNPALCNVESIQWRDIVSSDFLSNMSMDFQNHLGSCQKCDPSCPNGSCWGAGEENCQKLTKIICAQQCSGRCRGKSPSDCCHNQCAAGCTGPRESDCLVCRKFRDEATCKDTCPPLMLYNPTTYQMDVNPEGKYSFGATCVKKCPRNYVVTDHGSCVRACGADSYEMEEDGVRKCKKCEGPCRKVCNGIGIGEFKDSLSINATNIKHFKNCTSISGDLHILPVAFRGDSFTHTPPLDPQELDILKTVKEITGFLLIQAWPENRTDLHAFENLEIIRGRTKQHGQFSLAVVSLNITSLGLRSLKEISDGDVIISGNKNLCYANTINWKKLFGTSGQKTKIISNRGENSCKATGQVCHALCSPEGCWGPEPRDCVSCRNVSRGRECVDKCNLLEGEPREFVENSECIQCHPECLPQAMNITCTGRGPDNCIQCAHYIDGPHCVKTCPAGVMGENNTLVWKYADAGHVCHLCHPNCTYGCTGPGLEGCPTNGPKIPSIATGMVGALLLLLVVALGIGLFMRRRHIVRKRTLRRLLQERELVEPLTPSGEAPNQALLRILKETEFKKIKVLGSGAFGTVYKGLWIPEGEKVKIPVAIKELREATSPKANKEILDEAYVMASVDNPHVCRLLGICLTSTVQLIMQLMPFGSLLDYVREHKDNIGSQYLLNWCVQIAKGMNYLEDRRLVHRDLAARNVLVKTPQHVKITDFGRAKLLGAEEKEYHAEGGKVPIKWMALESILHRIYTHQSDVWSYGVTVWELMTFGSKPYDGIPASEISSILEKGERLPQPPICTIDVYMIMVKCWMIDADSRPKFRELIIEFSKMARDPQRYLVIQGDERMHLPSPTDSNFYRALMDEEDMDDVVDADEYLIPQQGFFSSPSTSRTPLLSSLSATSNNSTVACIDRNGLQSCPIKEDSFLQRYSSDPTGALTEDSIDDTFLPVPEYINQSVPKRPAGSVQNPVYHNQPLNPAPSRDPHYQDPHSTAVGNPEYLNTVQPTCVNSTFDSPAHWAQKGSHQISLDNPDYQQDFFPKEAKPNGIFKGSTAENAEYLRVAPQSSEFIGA
Summary of the method: as §1

EGFR del19/T790M/C797S = EGFR del19/T790M/C797S (Homo sapiens, UniProt P00533, C797S/DEL746-750/T790M); assay: Biochemical EGFR kinase assay (Lance Ultra TR-FRET), triple mutant del19/T790M/C797S
Chain of EGFR del19/T790M/C797S (P00533 with tags, fused parts or gaps DEL746-750/T790M/C797S): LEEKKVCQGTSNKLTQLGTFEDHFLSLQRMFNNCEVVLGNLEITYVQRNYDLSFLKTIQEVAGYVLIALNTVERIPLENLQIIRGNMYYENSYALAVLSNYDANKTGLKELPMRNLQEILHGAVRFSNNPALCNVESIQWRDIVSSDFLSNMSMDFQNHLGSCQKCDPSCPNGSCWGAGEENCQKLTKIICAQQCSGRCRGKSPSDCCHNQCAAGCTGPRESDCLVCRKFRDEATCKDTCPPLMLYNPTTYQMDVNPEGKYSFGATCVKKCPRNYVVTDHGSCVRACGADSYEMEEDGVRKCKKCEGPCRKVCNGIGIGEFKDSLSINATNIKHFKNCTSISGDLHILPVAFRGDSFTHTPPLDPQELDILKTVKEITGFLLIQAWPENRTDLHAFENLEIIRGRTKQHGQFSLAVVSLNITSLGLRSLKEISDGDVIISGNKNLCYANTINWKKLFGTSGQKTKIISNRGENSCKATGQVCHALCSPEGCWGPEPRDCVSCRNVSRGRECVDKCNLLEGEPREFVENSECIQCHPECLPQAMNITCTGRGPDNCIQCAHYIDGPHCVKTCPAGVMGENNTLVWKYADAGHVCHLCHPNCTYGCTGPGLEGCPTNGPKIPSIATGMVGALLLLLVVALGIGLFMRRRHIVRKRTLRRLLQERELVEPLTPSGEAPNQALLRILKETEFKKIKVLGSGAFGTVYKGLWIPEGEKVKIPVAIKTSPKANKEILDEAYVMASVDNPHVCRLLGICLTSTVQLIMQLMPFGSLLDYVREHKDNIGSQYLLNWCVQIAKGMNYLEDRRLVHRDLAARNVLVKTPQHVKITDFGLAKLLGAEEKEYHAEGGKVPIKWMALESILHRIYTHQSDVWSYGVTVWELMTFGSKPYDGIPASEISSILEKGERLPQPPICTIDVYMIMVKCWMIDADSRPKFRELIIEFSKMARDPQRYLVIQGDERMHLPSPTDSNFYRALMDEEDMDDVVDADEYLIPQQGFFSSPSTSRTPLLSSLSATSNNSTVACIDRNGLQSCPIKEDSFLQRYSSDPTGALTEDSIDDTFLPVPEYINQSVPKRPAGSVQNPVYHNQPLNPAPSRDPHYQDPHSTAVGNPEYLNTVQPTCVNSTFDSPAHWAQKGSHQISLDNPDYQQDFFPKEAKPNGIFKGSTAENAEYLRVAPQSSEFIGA
Summary of the method: as §1

EGFR L858R/C797S = EGFR L858R/C797S (Homo sapiens, UniProt P00533, C797S/L858R); assay: Biochemical EGFR kinase assay (Lance Ultra TR-FRET), double mutant L858R/C797S
Summary of the method: as §1

[1] = IC50 del19/C797S (nM) 100 μM ATP, 100 μM ATP
[2] = Km ATP, read-out: IC50 del19/C797S (nM) Km ATP
[3] = IC50 WT (nM) 100 μM ATP, 100 μM ATP
[4] = Km ATP, read-out: IC50 WT (nM) Km ATP
[5] = Km ATP, read-out: IC50 L858R/T790M/C797S (nM) Km ATP
[6] = Km ATP, read-out: IC50 del19/T790M/C797S (nM) Km ATP
[7] = IC50 L858R/C797S (nM) 100 μM ATP, 100 μM ATP
[8] = Km ATP, read-out: IC50 L858R/C797S (nM) Km ATP
[9] = IC50 L858R/T790M/C797S (nM) 100 μM ATP, 100 μM ATP
[10] = IC50 del19/T790M/C797S (nM) 100 μM ATP, 100 μM ATP

Chain of EGFR del19/C797S (P00533 with tags, fused parts or gaps DEL746-750/C797S): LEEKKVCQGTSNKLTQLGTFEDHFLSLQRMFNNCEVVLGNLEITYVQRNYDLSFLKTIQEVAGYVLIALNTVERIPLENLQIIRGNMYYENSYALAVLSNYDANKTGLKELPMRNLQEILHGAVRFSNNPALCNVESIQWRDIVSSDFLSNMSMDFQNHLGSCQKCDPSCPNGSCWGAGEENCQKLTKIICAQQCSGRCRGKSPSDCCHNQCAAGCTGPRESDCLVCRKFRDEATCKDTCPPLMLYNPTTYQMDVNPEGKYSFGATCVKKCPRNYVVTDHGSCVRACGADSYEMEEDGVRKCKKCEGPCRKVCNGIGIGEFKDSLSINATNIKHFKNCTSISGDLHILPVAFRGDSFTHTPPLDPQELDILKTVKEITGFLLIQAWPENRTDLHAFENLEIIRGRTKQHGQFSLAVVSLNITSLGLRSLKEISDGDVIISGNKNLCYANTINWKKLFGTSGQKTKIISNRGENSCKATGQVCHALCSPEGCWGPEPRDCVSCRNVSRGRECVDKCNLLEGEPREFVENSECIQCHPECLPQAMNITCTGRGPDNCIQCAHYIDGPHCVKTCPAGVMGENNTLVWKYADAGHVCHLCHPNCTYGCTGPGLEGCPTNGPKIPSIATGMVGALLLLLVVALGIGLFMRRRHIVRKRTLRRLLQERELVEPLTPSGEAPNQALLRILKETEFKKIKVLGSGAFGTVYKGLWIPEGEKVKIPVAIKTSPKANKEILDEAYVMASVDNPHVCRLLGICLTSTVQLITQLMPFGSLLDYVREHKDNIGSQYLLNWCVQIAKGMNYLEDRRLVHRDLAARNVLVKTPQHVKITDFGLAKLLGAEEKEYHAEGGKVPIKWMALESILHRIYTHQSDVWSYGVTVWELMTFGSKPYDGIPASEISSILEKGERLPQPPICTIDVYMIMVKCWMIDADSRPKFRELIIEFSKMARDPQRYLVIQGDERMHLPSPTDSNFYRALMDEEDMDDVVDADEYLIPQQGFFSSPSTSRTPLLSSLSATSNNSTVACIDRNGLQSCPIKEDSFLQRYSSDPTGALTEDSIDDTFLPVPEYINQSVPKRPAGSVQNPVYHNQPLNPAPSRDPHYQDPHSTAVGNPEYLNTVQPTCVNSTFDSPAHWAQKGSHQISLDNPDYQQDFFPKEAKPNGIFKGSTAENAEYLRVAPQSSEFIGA

Structure (SMILES) | IC50 (EGFR del19/C797S; [1]) [nM] | IC50 (EGFR del19/C797S; [2]) [nM] | IC50 (EGFR wildtype (WT); [3]) [nM] | IC50 (EGFR wildtype (WT); [4]) [nM] | IC50 (EGFR L858R/T790M/C797S; [5]) [nM] | IC50 (EGFR del19/T790M/C797S; [6]) [nM] | IC50 (EGFR L858R/C797S; [7]) [nM] | IC50 (EGFR L858R/C797S; [8]) [nM] | IC50 (EGFR del19/C797S; read-out: IC50 del19/C797S (nM) 100 μM ATP, 100 μM ATP) [nM] | IC50 (EGFR wildtype (WT); read-out: IC50 WT (nM) 100 μM ATP, 100 μM ATP) [nM] | IC50 (EGFR L858R/T790M/C797S; read-out: IC50 L858R/T790M/C797S (nM) 100 μM ATP, 100 μM ATP) [nM] | IC50 (EGFR del19/T790M/C797S; read-out: IC50 del19/T790M/C797S (nM) 100 μM ATP, 100 μM ATP) [nM] | IC50 (EGFR L858R/C797S; read-out: IC50 L858R/C797S (nM) 100 μM ATP, 100 μM ATP) [nM] | IC50 (EGFR L858R/T790M/C797S; [9]) [nM] | IC50 (EGFR del19/T790M/C797S; [10]) [nM]
CC(C)n1ccc(-c2cnc(Nc3ccnc(-c4cnn(S(=O)(=O)C5CC5)c4)n3)cc2N[C@H]2CC[C@@H](O)CC2)n1 [Example 82, (1s,4s)-4-((2-((2-(1-(Cyclopropylsulfonyl)-1H-pyrazol-4-yl)pyrimidin-4-yl)amino)-5-(1-isopropyl-1H-pyrazol-3-yl)pyridin-4-yl)amino)cyclohexan-1-ol] |  |  |  |  |  |  |  |  | 2.1 | 2410 | 1.8 | 1.7 | 3.9 |  | 
O=S(=O)(C1CC1)n1cc(-c2nccc(Nc3cc(N[C@H]4CCC[C@H](CO)C4)c(-c4ccn(CC(F)(F)F)n4)cn3)n2)cn1 [Example 271, ((1S,3S)-3-((2-((2-(1-(Cyclopropylsulfonyl)-1H-pyrazol-4-yl)pyrimidin-4-yl)amino)-5-(1-(2,2,2-trifluoroethyl)-1H-pyrazol-3-yl)pyridin-4-yl)amino)cyclohexyl)methanol] | 122 | 10.3 | > 10000 | 50.1 | 0.5 | 0.6 | 8.7 | 4.6 |  |  |  |  |  | 1.4 | 1.4
O=S(=O)(C1CC1)n1cc(-c2nccc(Nc3cc(N[C@H]4CC[C@](O)(C(F)F)CC4)c(-c4ccn(C(F)F)n4)cn3)n2)cn1 [Example 200, (1s,4s)-4-((2-((2-(1-(Cyclopropylsulfonyl)-1H-pyrazol-4-yl)pyrimidin-4-yl)amino)-5-(1-(difluoromethyl)-1H-pyrazol-3-yl)pyridin-4-yl)amino)-1-(difluoromethyl)cyclohexan-1-ol] |  | 13.5 | > 10000 | 2850 | 0.4 | 0.6 | 293 | 15.4 |  |  |  |  |  | 2.1 | 1
CCC(C)Nc1cc(Nc2ccnc(-c3cnn(S(=O)(=O)C4CC4)c3)n2)ncc1-c1ccn(C(F)F)n1 (stereo not shown) [Example 210, N^4-(sec-Butyl)-N^2-(2-(1-(cyclopropylsulfonyl)-1H-pyrazol-4-yl)pyrimidin-4-yl)-5-(1-(difluoromethyl)-1H-pyrazol-3-yl)pyridine-2,4-diamine] |  | 70.5 |  | 90.5 | 1.3 | 1.7 |  | 6.5 |  |  |  |  |  |  | 
O=S(=O)(C1CC1)n1cc(-c2nccc(Nc3cc(N[C@H]4CC[C@H](CCO)CC4)c(-c4ccn(CC(F)(F)F)n4)cn3)n2)cn1 [Example 270, 2-((1r,4r)-4-((2-((2-(1-(Cyclopropylsulfonyl)-1H-pyrazol-4-yl)pyrimidin-4-yl)amino)-5-(1-(2,2,2-trifluoroethyl)-1H-pyrazol-3-yl)pyridin-4-yl)amino)cyclohexyl)ethan-1-ol] | 2700 | 23.6 | > 10000 | 620 | 0.7 | 7.2 | 35.4 | 11.2 |  |  |  |  |  | 1.2 | 2.1

Further lines, results first:

IC50 (EGFR del19/C797S; [1]) [nM] | IC50 (EGFR del19/C797S; [2]) [nM] | IC50 (EGFR wildtype (WT); [3]) [nM] | IC50 (EGFR wildtype (WT); [4]) [nM] | IC50 (EGFR L858R/T790M/C797S; [5]) [nM] | IC50 (EGFR del19/T790M/C797S; [6]) [nM] | IC50 (EGFR L858R/C797S; [7]) [nM] | IC50 (EGFR L858R/C797S; [8]) [nM] | IC50 (EGFR del19/C797S; read-out: IC50 del19/C797S (nM) 100 μM ATP, 100 μM ATP) [nM] | IC50 (EGFR wildtype (WT); read-out: IC50 WT (nM) 100 μM ATP, 100 μM ATP) [nM] | IC50 (EGFR L858R/T790M/C797S; read-out: IC50 L858R/T790M/C797S (nM) 100 μM ATP, 100 μM ATP) [nM] | IC50 (EGFR del19/T790M/C797S; read-out: IC50 del19/T790M/C797S (nM) 100 μM ATP, 100 μM ATP) [nM] | IC50 (EGFR L858R/C797S; read-out: IC50 L858R/C797S (nM) 100 μM ATP, 100 μM ATP) [nM] | IC50 (EGFR L858R/T790M/C797S; [9]) [nM] | IC50 (EGFR del19/T790M/C797S; [10]) [nM] | Structure (SMILES)
18.5 | 20.4 | > 10000 | 144 | 0.4 | 0.7 | 218 | 10.8 |  |  |  |  |  |  |  | O=S(=O)(C1CC1)n1cc(-c2nccc(Nc3cc(N[C@H]4CC[C@](O)(CO)CC4)c(-c4csc(N5CCOCC5)n4)cn3)n2)cn1 [Example 125, (1s,4s)-4-((2-((2-(1-(Cyclopropylsulfonyl)-1H-pyrazol-4-yl)pyrimidin-4-yl)amino)-5-(2-morpholinothiazol-4-yl)pyridin-4-yl)amino)-1-(hydroxymethyl)cyclohexan-1-ol]
 | 1.2 | > 10000 | 3 | 0.8 |  | 9.8 | 4.3 |  |  |  |  |  |  | 0.7 | Cn1nc(-c2cnc(Nc3ccnc(-c4cnn(S(=O)(=O)C5CC5)c4)n3)cc2N[C@H]2CC[C@@](C)(O)CC2)cc1C(F)(F)F [Example 252, (1s,4s)-4-((2-((2-(1-(Cyclopropylsulfonyl)-1H-pyrazol-4-yl)pyrimidin-4-yl)amino)-5-(1-methyl-5-(trifluoromethyl)-1H-pyrazol-3-yl)pyridin-4-yl)amino)-1-methylcyclohexan-1-ol]
0.3 | 0.2 | 150 | 0.7 | 0.1 | 0.3 | 0.7 | 0.2 |  |  |  |  |  | 0.1 | 0.2 | O=S(=O)(C1CC1)n1cc(-c2nccc(Nc3cc(N[C@H]4CC[C@@H](CN5CCC5)CC4)c(-c4ccn(CC(F)F)n4)cn3)n2)cn1 [Example 247, N^4-((1s,4s)-4-(Azetidin-1-ylmethyl)cyclohexyl)-N^2-(2-(1-(cyclopropylsulfonyl)-1H-pyrazol-4-yl)pyrimidin-4-yl)-5-(1-(2,2-difluoroethyl)-1H-pyrazol-3-yl)pyridine-2,4-diamine]
0.7 | 0.3 | 2050 | 4 | 0.1 | 0.2 | 7.2 | 1 |  |  |  |  |  | 0.1 | 0.2 | CN[C@H]1CC[C@H](CNc2cc(Nc3ccnc(-c4cnn(S(=O)(=O)C5CC5)c4)n3)ncc2-c2ccn(C(F)F)n2)CC1 [Example 193, N^2-(2-(1-(Cyclopropylsulfonyl)-1H-pyrazol-4-yl)pyrimidin-4-yl)-5-(1-(difluoromethyl)-1H-pyrazol-3-yl)-N^4-(((1r,4r)-4-(methylamino)cyclohexyl)methyl)pyridine-2,4-diamine]
1.7 |  | 1790 |  |  |  | 8.7 |  |  |  |  |  |  | 0.2 | 0.1 | CN(C)C[C@H]1C[C@@H](CNc2cc(Nc3ccnc(-c4cnn(S(=O)(=O)C5CC5)c4)n3)ncc2-c2ccn(C)n2)C1 [Example 234, N^2-(2-(1-(Cyclopropylsulfonyl)-1H-pyrazol-4-yl)pyrimidin-4-yl)-N^4-(((1s,3s)-3-((dimethylamino)methyl)cyclobutyl)methyl)-5-(1-methyl-1H-pyrazol-3-yl)pyridine-2,4-diamine]
0.4 | 0.6 | 918 | 2.2 | 0.2 | 0.6 | 2.8 | 0.7 |  |  |  |  |  | 0.2 | 0.2 | Cn1ccc(-c2cnc(Nc3ccnc(-c4cnn(S(=O)(=O)C5CC5)c4)n3)cc2N[C@H]2CC[C@@H](NCC(F)F)CC2)n1 [Example 45, N^2-(2-(1-(Cyclopropylsulfonyl)-1H-pyrazol-4-yl)pyrimidin-4-yl)-N^4-((1s,4s)-4-((2,2-difluoroethyl)amino)cyclohexyl)-5-(1-methyl-1H-pyrazol-3-yl)pyridine-2,4-diamine]
3.4 |  | 1240 |  |  |  | 4.8 |  |  |  |  |  |  | 1.2 | 1.1 | O=S(=O)(C1CC1)n1cc(-c2nccc(Nc3cc(N[C@H]4CC[C@@H](O)CC4)c(-c4csc(C(F)(F)F)n4)cn3)n2)cn1 [Example 81, (1s,4s)-4-((2-((2-(1-(Cyclopropylsulfonyl)-1H-pyrazol-4-yl)pyrimidin-4-yl)amino)-5-(2-(trifluoromethyl)thiazol-4-yl)pyridin-4-yl)amino)cyclohexan-1-ol]
